Measured values: BindingDB's records for doi:10.7270/Q2S180TW (Burnham Center For Chemical Genomics, 2008)

Target: Heat shock 70 kDa protein 1A (Homo sapiens, UniProt V9GZ37)
Assay: small molecules displacing fluorescent ligand from Hsp70 – biochemical, fluorescence polarization, primary screen (AID 583)
Conditions: pH 7; 23 °C

Chain of Heat shock 70 kDa protein 1A (V9GZ37 whole entry): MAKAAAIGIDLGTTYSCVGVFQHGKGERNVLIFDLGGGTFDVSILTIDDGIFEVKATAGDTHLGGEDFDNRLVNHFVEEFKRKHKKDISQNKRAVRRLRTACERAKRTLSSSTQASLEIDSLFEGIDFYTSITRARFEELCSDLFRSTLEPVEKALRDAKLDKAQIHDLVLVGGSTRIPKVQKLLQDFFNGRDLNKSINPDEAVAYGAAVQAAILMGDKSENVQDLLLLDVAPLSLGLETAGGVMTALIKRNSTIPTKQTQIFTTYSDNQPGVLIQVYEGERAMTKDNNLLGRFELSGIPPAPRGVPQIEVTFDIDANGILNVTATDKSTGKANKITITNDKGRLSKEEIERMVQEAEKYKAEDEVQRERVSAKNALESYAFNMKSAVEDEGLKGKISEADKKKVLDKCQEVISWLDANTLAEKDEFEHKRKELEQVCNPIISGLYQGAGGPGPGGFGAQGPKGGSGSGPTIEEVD

Structure (SMILES) | IC50 [µM]
CC(=O)N1CCC2(CC1)c1c(n[nH]c1C)OC(=N)C2C#N (configuration not stated) [6-azanyl-1'-ethanoyl-3-methyl-spiro[2H-pyrano[2,3-c]pyrazole-4,4'-piperidine]-5-carbonitrile] | 100
C=c1[nH]n(-c2cccc(C(=O)O)c2)c(=O)c1=CC=Cc1ccco1 [SMR000113614] | 21.7
